Source: ChEMBL document CHEMBL1201862, “PubChem BioAssay data set” (2004)
Active and inactive are the calls of the source. No stated cut-off is given here; in the data, actives have a measured IC50 and inactives only a lower limit.

Molecular target: Envelope glycoprotein gp160 (Human immunodeficiency virus 1, UniProt Q6QLK5)
Experiment: inhibitors of HIV fusion peptide binding, primary screen, biochemical, uHTS, fluorescence dequenching (AID 1986)

Sequence of Envelope glycoprotein gp160 (Q6QLK5 whole entry, the tested form may be a part): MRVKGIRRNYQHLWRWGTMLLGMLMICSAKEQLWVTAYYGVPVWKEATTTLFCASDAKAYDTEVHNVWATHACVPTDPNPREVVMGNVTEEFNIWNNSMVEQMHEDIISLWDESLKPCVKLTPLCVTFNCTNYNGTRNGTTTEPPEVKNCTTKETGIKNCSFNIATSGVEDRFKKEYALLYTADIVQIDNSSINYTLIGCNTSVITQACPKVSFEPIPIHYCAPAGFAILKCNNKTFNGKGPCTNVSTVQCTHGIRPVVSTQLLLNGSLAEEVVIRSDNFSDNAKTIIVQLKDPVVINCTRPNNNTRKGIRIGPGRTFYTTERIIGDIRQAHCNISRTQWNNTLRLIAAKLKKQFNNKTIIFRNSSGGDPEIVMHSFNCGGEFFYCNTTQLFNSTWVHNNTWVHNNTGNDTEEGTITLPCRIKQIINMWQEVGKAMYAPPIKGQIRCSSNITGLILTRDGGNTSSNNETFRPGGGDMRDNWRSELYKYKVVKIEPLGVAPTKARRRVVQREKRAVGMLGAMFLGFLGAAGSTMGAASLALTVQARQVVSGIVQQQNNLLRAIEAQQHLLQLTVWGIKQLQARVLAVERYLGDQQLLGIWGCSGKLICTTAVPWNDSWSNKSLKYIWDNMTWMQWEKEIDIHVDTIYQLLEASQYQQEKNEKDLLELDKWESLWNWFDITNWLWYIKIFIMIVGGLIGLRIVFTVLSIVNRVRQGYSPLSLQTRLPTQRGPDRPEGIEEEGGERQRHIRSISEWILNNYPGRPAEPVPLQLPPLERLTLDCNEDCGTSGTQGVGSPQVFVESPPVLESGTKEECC

Row | Structure (SMILES) | IC50
1 | CN(C)S(=O)(=O)c1cccc(-c2nn(-c3ccccc3)cc2/C=C2\SC(=S)N(CC(=O)O)C2=O)c1 | 15.3 µM (active)
2 | CC1=C(C(=O)OC(C)C)C(c2ccc(Cl)cc2)n2c(s/c(=C\c3ccc(OCC(=O)O)cc3)c2=O)=N1 (configuration not stated) | 13.4 µM (active)
